Experimental data reported in US9883691B2, “Food and beverage products containing 1,3-propanediol and methods of modifying flavor release using 1,3-propanediol” (Kraft Foods Group Brands LLC, priority 2012, dated 2018).

Legend:
Assay type in all cases: physicochemical
[1] = PTR-MS headspace release from stored beverages, water/solvent experiment (Example 4); conditions: beverage stored refrigerated; 1.5, 24, 48 and 72 hours; Tukey-Kramer
Description: 0.86 grams of the flavor concentrate was then added to 100 grams of either propylene glycol or 1,3-propanediol to provide diluted concentrates. […].
The beverages were then stored in sealed containers in a refrigerator. The container was opened five times over the course of the experiment and therefore represented a beverage in a sealed container being opened for multiple uses. 15 gram samples were weighed into a 4 ounce cup and analyzed at 1.5 hours, 24 hours, 48 hours, and 72 hours after storage.
The samples were analyzed in triplicate by PTR-MS as described below to determine impact of 1,3-propanediol or propylene glycol on release of the flavors from the beverage. The PTR-MS was performed as follows. A sampling apparatus was needed in conjunction with the PTR-MS inlet to prevent variations caused by headspace kinetics. The sampling apparatus used includes a 4 ounce sample vessel equipped with a 2-hole lid which may be sealed by an adhesive film to allow equilibration. […]. The holes were equal sized (˜2 mm diameter) and match the outer diameter of the PTR-MS inlet line. The flow of the dilution gas into the vessel was regulated by the vacuum and proportional valve of the PTR-MS inlet system. […] The 2 holes in the lid were equidistant from the edge of the vessel (˜20 mm) and ˜30 mm from each other. The PTR-MS inlet was braced by clamps in a fixed position vertically above the laboratory bench (˜55 mm) and a silicone rubber depth gauge was affixed to the PTR-MS inlet tubing and set at 18 mm. The PTR-MS inlet was consistently oriented in a vertical position […] below the inside lid of the vessel and 19 mm above the sample in the vessel. The sample vessel was then held in place during sampling according to the depth gauge on the inlet line and the vessel was subsequently supported on the bench by a 10 mm plastic spacer.
15 grams of the sample to be tested (e.g., food or beverage product containing 1,3-propanediol) are added to the vessel and the vessel is sealed and allowed to equilibrate at room temperature (˜22° C.) for 90 minutes. At the time of sampling, the seal was removed from both the sampling hole and the dilution gas hole in the lid and the vessel was immediately affixed to the PTR-MS inlet via the sampling hole. The real-time released flavor was measured from the headspace of the sample vessel for two minutes (according to the conditions listed in Table 1 above).
The data was analyzed using PTR-MS Viewer, Version 3.0.0.101 (Ionicon Analytik G.m.b.H). The point of maximum intensity for each compound of interest was determined and recorded according to the PTR-MS Viewer software. The maximum intensity in counts over the timescale for each compound of interest was used for data analysis as it reflected the static equilibrium headspace concentration in the system at the moment of seal removal. Due to the necessity of a dilution gas, the volatile concentration decreased over time as the compounds of interest re-equilibrated to a state of dynamic equilibrium in the headspace.
The statistical differences were determined by Tukey-Kramer Honest […]. […].

[2] = PTR-MS real-time headspace release, watermelon flavor model in water (Example 1); set-up: Sample A (PG) Mean / Sample B (1,3-propanediol) Mean: unit not given here; conditions: for Sample B (1,3-propanediol) Mean / Sample A (PG) Mean: PTR-MS headspace, diluted in water, 90 minutes equilibration, mean of three; for Sample B (1,3-propanediol) Mean: watermelon flavor concentrate in 1,3-propanediol; for Sample A (PG) Mean: watermelon flavor concentrate in propylene glycol; for Percent Release Difference: Sample B (1,3-propanediol) relative to Sample A (PG)
Description: The impact of 1,3-propanediol on the release of flavor compounds can be analyzed by Proton Transfer Reaction Mass Spectrometry (PTR-MS; model TOF-8000 from Ionicon Analytik Inc.), where real-time headspace release of volatiles is measured. A sampling apparatus is needed in conjunction with the PTR-MS inlet to prevent variations caused by headspace kinetics. By one exemplary approach, the sampling apparatus includes a 4 ounce sample vessel equipped with a 2-hole lid which may be sealed by an adhesive film to allow equilibration. […]. The holes are equal sized (˜2 mm diameter) and match the outer diameter of the PTR-MS inlet line. The flow of the dilution gas into the vessel is regulated by the vacuum and proportional valve of the PTR-MS inlet system. The sample vessel has a base diameter of 47 mm and is 45 mm high, of which 8 mm of height is occupied by the sample in the vessel in these experiments. The 2 holes in the lid are equidistant from the edge of the vessel (˜20 mm) and about 30 mm from each other. The PTR-MS inlet is braced by clamps in a fixed position vertically above the laboratory bench (˜55 mm) and a silicone rubber depth gauge is affixed to the PTR-MS inlet tubing and set at 18 mm. The PTR-MS inlet is thus consistently oriented in a vertical position 18 mm below the inside lid of the vessel and 19 mm above the sample in the vessel. The sample vessel is then held in place during sampling according to the depth gauge on the inlet line and the vessel is subsequently supported on the bench by a 10 mm plastic spacer.
15 grams of the sample to be tested (e.g., food or beverage product containing 1,3-propanediol) are added to the vessel. The vessel is sealed and allowed to equilibrate at room temperature (˜22° C.) for 90 minutes. At the time of sampling, the seal is removed from both the sampling hole and the dilution gas hole in the lid and the vessel is immediately affixed to the PTR-MS inlet via the sampling hole. The real-time released flavor is measured from the headspace of the sample vessel for two minutes (according to the conditions listed in Table 1 below). A comparative sample is prepared that is otherwise identical to the test sample but contains propylene glycol or water instead of 1,3-propanediol. The comparative sample is then analyzed in triplicate by PTR-MS using the above-described procedure. The data can be analyzed using PTR-MS Viewer, Version 3.0.0.101 (Ionicon Analytik G.m.b.H). The point of maximum intensity for each compound of interest can be determined and recorded according to the PTR-MS Viewer software. The maximum intensity in counts over the timescale for each compound of interest can be used for data analysis as it reflects the static equilibrium headspace concentration in the system at the moment of seal removal. Due to the necessity of a dilution gas, the volatile concentration decreases over time as the compounds of interest re-equilibrate to a state of dynamic equilibrium in the headspace.
[…]. Sample A was prepared with 20 grams watermelon flavor concentrate and 80 grams propylene glycol. Sample B was prepared with 20 grams watermelon flavor concentrate and 80 grams 1,3-propanediol. Each of the samples was further diluted by adding 0.08 grams of each diluted concentrate to 99.92 grams water to provide a flavor water solution.
The diluted samples were analyzed by Proton Transfer Reaction Mass Spectrometry (PTR-MS; model TOF-8000 from Ionicon Analytik Inc.) for real-time headspace release volatiles measurement. Samples were analyzed in triplicate. […]. […].

[3] = PTR-MS headspace release at various flavor compound to 1,3-propanediol or PG ratios (Example 2); conditions: for release suppressed in the presence of 1,3-propanediol: 10% cut-off for significant difference, relative to PG; for Percent Suppression by 1,3-propanediol: (IZ−IPG)/IPG×100
Description: The compounds listed below in Table 3 were added together to provide a liquid flavoring to analyze the role, if any, of the amount of 1,3-propanediol on flavor release. […] The amount of each flavor compound in the beverage was held constant at 8 ppm except furfuryl mercaptan was included at 1.6 ppm while the amount of propylene glycol or 1,3-propanediol varied.
The percent suppression was calculated using the following formula: (IZ−IPG)/IPG×100, where I is peak height, “Z” is 1,3-propanediol and “PG” is propylene glycol.

[4] = ratio 0.005:100, negative = suppressed vs PG

SMILES | effect of 1,3-propanediol on flavor release relative to propylene glycol, water/solvent [1] | Sample B (1,3-propanediol) Mean [2] | Sample A (PG) Mean [2] | Percent Release Difference [2] | release suppressed in the presence of 1,3-propanediol [3] | effect of 1,3-propanediol on release ([3]; flavor/1,3-propanediol ratio of 0.05:100 and 5:100) | Percent Suppression by 1,3-propanediol [3, 4] | Percent Suppression by 1,3-propanediol ([3]; ratio 0.05:100) | Percent Suppression by 1,3-propanediol ([3]; ratio 5:100) | Percent Suppression by 1,3-propanediol ([3]; ratio 15:100) | effect of 1,3-propanediol on release ([3]; flavor/1,3-propanediol ratio of 0.005:100, 0.05:100, and 5:100) | effect of 1,3-propanediol on release ([3]; ratio 0.005:100)
O=Cc1ccccc1 [Benzaldehyde] | significantly suppressed release | 32.00 | 39.67 | −19.3% | suppressed | significant suppression effect | −0.5% | −90.3% | −40.6% | −16.2% |  | 
CC=O [Acetaldehyde] | released faster in propylene glycol | 877 | 803.33 | 9.1% | suppressed |  | −22.1% | −37.3% | −57.4% | 64.5% | significant suppression effect | still suppressed
CCCC(=O)OCC [Ethyl butyrate] | little effect | 5827 | 10983 | −46.9% |  |  | 3.2% | 14.9% | −21.8% | −3.3% |  | 
